Results reported in patent US9636323B2, “Method of treating cancer that overexpresses TopBP1” (Baylor College of Medicine, priority 2014, dated 2017).

Columns and labels:
[1] = tested on: mutp53(R249S)/p73 interaction; test: Anti-p73 immunoprecipitation in BT549 cells; format: cell-based, human; conditions: 2.5 μM, 5 h
Description: (§1) MDA-MB468 cells were lysed with TNN buffer (Liu et al. 2003). An aliquot of cell lysates was lysed with SDS lysis buffer and the rest of cell lysates were incubated with appropriate antibodies or beads at 4° C. for 3-12 h. Anti-FLAG beads (Sigma) were washed three times with TNN buffer. Immunoprecipitates were fractionated by SDS-PAGE and electro-transferred to Immobilon-P membrane (Millipore). Equal amount of protein loading was validated with Ponceau-S staining. The specific signals were detected by incubating with appropriate antibody. All primary antibodies were used at 1:1000 dilution and horseradish peroxidase (HRP)-conjugated secondary antibodies were used at 1:5000 dilution for immunoblotting. E2F1 (C-20 and KH-95), p53 (FL393), p63 (4A4 and H-129), p73 (H-79), p21 (C-19), Bax (N-20), GST (B-14), c-Myc (A14), Miz1 (H-190), Chk1 (G4), Actin (C-2) and GAPDH (6C5) antibodies were purchased from Santa Cruz. TopBP1 (mouse monoclonal) and Aid antibodies were purchased from BD Transduction Laboratories. TopBP1 (BL893, Rabbit polyclonal) antibody was purchased from Bethyl. Mouse monoclonal anti-phospho-γH2AX was purchased from Millipore. Phospho-Chk1 (Ser345) antibody was purchased from Cell signaling. FLAG (F7425) antibody was purchased from Sigma. Mouse monoclonal anti-p73 (IMG-246) was purchased from IMGENEX.

MDA-MB468 cells = test: Colony formation assay; format: cell-based, human; conditions: 16 h treatment, then 8 days without drug
Description: MDA-MB468 cells were plated in 6-well plates at 200 cells/well. […] Cells were grown in fresh media without drugs for additional 8 days to form colonies, when each colony contained more than 50 cells. Plates were then stained with […] crystal violet (0.5 g Crystal violet, 25 ml methanol and 75 ml H2O). Cell number was counted.

MCF7 cells = test: Caspase 3/7 activity assay, MCF7; format: cell-based, human; conditions: 2.5 μM overnight
Description: (§2) The apoptosis was measured by Caspase-Glo® 3/7 assay (Promega) following the manufacturer's protocol. The cells were plated in 6-well tissue culture dish (10^4 cells/well) (BD Falcon) in respective media. […] The blank reactions were prepared per direction. Equal volume of Caspase-Glo® 3/7 reagents were applied to each well. A luminometer (Sirius) was used to quantitate luminescence.

[2] = tested on: T47D (PIK3CA mutant H1047R); conditions: NCI-60 cell lines database; cited from earlier work
MDA-MB468 = test: DNA damage signals (pS15-p53, γ-H2AX) in MDA-MB468; format: cell-based, human; conditions: up to 10 μM
Description: as §1

[3] = tested on: NCI-H520 lung cancer cells; test: Caspase 3/7 activation assay, NCI-H520; format: cell-based; conditions: 2.5 or 5 μM, 16 hours
Description: as §2

[4] = biological target: T1, TopBP1/E2F1 interaction in HEK293T cells (Homo sapiens, UniProt Q92547); test: Co-immunoprecipitation of overexpressed E2F1 and TopBP1; format: cell-based; conditions: 5 h
T1 construct: expressed in transfected cells
Description: as §1

BT549 xenografts = test: BT549 xenograft formation; format: in vivo, nude mice
Description: Twenty nude mice were injected s.c. with BT549 cells. […] Six out of eight DMSO-treated mice developed xenografts later.

BT549 cells = test: Caspase-Glo 3/7 activity assay, BT549; format: cell-based, human; conditions: for Calcein AM-induced apoptosis: 17 h
Description: as §2
(§3) To prepare TopBP1 knockdown stable cell line, MDA-MB468 cells were infected with lentivirus expressing TopBP1 shRNA (Liu et al. 2011) as well as scramble shRNA, separately. The infected cells were grown for 48 h followed by selection with puromycin (2 μg/ml). After selection, the knockdown was confirmed by Western blotting before further experiments. Two different pLKO-shTopBP1 (#1 and #2) constructs (Open Biosystems, RHS4533-NM_007027) were used to deplete TopBP1 in MDA-MB468 cells. Additional two pSuper-shTopBP1 constructs (Liu et al. 2004) were used to knock down TopBP1 in HEK293 cells. Two pSuper-shE2F1 constructs were used to deplete E2F1: shE2F1#1 (described previously (Liu et al. 2004)), and shE2F1#2 (target sequence 5′-[…]-3′). The target sequence for pSuperior-shE2F1 is the same as pSuper-shE2F1#1. To deplete p63, shp63alpha pLKO.1-puro (from Addgene, 19120) was used. TP73 MISSION shRNA (shp73 pLKO.1-puro) was purchased from Sigma (TRCN00002722587).

[5] = tested on: 4T1 mouse breast tumor cells; test: Apoptosis in mouse tumor cells; format: cell-based
Description: as §2

mice = conditions: cited from earlier work
HEK293 cells = test: Caspase-Glo 3/7 activity assay, HEK293; format: cell-based, human; conditions: 2.5 μM overnight
Description: as §2, §3

MDA-MB231 cells = test: Caspase 3/7 activity assay, MDA-MB231; format: cell-based, human; conditions: 2.5 μM overnight
Description: as §2

A549 = conditions: NCI-DTP database; cited from earlier work
[6] = tested on: SKOV-3 ovarian cancer cells; test: MTS assay, SKOV-3; format: cell-based, human
Description: Then 50 μl of MTS reagent (CellTiter 96® AQueous One Solution Cell Proliferation Assay, Promega) was added to each well, covered from light and incubated for 1 h at 37.0 incubator to develop purple color. The samples were measured at 490 nm in a plate reader (BioTek Synergy HT) against a blank 48-well plate. Each assay was done in triplicate.

T1 sequence (Q92547 whole entry): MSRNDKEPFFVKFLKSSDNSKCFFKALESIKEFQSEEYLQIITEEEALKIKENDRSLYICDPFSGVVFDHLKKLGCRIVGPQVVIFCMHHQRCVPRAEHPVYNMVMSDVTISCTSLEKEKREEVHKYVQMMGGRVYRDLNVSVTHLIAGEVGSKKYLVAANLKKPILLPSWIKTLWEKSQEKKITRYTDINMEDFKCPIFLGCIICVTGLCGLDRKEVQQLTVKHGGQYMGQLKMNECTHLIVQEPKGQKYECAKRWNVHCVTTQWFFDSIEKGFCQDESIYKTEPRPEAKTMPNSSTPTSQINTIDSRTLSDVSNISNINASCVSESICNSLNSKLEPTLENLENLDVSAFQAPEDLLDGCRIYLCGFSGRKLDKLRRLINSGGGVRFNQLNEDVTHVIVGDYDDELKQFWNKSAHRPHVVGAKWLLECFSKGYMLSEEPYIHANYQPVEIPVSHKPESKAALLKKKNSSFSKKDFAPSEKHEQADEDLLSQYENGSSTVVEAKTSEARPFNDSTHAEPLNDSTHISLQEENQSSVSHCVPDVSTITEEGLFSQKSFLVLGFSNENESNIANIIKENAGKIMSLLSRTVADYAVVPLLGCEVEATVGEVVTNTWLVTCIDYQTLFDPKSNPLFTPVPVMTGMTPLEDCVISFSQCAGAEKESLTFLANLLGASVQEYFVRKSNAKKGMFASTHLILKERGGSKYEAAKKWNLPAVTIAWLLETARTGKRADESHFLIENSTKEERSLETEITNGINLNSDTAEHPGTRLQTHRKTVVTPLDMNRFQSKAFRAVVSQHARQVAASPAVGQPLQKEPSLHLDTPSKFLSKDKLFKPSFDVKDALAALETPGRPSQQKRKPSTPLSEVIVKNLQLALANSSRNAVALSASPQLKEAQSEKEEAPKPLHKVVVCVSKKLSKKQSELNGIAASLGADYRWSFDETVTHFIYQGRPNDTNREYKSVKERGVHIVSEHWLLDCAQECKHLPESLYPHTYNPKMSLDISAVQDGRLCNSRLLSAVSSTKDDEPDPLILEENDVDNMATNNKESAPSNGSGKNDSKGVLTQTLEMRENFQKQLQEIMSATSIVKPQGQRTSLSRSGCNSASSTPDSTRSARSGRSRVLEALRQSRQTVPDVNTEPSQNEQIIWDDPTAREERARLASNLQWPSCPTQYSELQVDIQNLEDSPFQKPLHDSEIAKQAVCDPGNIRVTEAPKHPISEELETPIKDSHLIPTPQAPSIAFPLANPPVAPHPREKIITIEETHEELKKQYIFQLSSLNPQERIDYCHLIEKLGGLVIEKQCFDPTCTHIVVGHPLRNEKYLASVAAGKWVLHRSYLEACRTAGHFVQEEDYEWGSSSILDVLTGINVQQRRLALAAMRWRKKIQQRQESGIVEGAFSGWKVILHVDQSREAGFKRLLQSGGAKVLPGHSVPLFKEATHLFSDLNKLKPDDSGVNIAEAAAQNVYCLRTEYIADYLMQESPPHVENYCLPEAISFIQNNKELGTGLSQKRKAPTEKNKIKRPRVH

CC(=O)OCOC(=O)CN(CC(=O)OCOC(C)=O)Cc1cc2c(cc1OC(C)=O)Oc1cc(OC(C)=O)c(CN(CC(=O)OCOC(C)=O)CC(=O)OCOC(C)=O)cc1C21OC(=O)c2ccccc21 [Calcein AM, Calcein AM (acetoxymethyl ester)]
binding of p73 to mutp53(R249S) [1]: release of p73 from mutp53(R249S)
concentration at which inhibition of colony formation was apparent (MDA-MB468 cells): ≥ 0.1 µM
apoptosis (caspase 3/7 activity) (MCF7 cells): induced apoptosis
GI50 [2]: 1400 nM
DNA damage (pS15-p53 or γ-H2AX signal) (MDA-MB468): did not see evidence of DNA damage
apoptosis (caspase 3/7 activation) [3]: induced apoptosis
interaction between overexpressed E2F1 and TopBP1 [4]: inhibited the interaction between overexpressed E2F1 and TopBP1
mice that developed tumors (BT549 xenografts; 20 mg/kg i.p. every three days for three doses): none of the eight
mice that developed tumors (BT549 xenografts; 40 mg/kg i.p. every three days for three doses): none of the four
concentration at which apoptosis was induced (BT549 cells; 16 h): ≥ 1 µM
Calcein AM response, caspase activation (BT549 cells; E2F1 depleted by two shRNA constructs, 2.5 μM, 16 h): attenuated
Calcein AM-induced apoptosis (BT549 cells; p63 depleted, 2.5 μM): decreased
Calcein AM-induced apoptosis (BT549 cells; p73 depleted, 2.5 μM): decreased
apoptosis [5]: induced apoptosis
oral LD50 (mice; oral): 17000 mg/kg
percutaneous LD50 (mice; percutaneous): 5000 mg/kg
apoptosis (caspase 3/7 activity) (HEK293 cells): induced apoptosis
apoptosis (caspase 3/7 activity) (HEK293 cells; TopBP1-depleted HEK293 cells): could not induce more apoptosis
apoptosis (caspase 3/7 activity) (MDA-MB231 cells): induced apoptosis
GI50 (A549): < 1000 nM
proliferation (MTS) ([6]; Calcein AM 5 μM in combination with cisplatin 20 μM, 20 h): inhibited the proliferation
proliferation (MTS) ([6]; Calcein AM alone, overnight): inhibited the proliferation
